# Test system: Nilaparvata lugens Stál (brown rice planthopper)
# Assay: Insecticidal action test for Nilaparvata lugens Stál (brown rice planthopper) (immersion test)
# Assay type: in vivo
# Conditions: 144 h, 500 ppm active ingredient (wettable powder diluted with water), sprouting unhulled rice immersed, 10 2-age larvae, 25° C., after 6 days, no repetition, read-out: insect mortality
# Experimental: Insecticidal action test for Nilaparvata lugens Stál (Brown Rice Planthopper) (Immersion Test)
# A wettable powder prepared based on Formulation Example 2 was diluted with water so that the concentration of active ingredient became 500 ppm. In the diluted liquid was immersed sprouting unhulled rice. The immersed rice was placed in a plastic cup of 60 ml. Into the plastic cup were released 10 2-age larvae of Nilaparvata lugens Stál (brown rice planthopper). The cup was covered with a cap and placed in a thermostat of 25° C. After 6 days, the number of living insects was counted and the mortality of insect was calculated using the calculation formula of Mathematical Expression 1. This test was conducted with no repetition. Insect mortality(%)=[1−(number of living insects)/(number of tested insects)]×100 [Mathematical Expression 1]
# The compound Nos. of the compounds which gave an insect mortality of 90% or higher in the above test, are shown below.
row,SMILES,mortality at 500 ppm [%]
1,"CC(C)ON=C(C#N)C(N)=NO [1-004, 3-amino-3-hydroxyimino-2-isopropoxyiminopropionitrile]",≥ 90
2,"CCCON=C(N)C(C#N)=NOCCC [1-072, 3-Amino-2,3-Bis(Propoxyimino)Propionitrile]",≥ 90
3,"CCCON=C(N)C(C#N)=NOC(C)C [1-073, 3-amino-2-isopropoxyimino-3-propoxyiminopropionitrile]",≥ 90
4,"CC(C)ON=C(N)C(C#N)=NOC(C)C [1-096, 3-amino-2,3-bis(isopropoxyimino)propionitrile]",≥ 90

# — US9044013B2, “Glyoxime derivative and pest control agent” (KUMIAI CHEMICAL INDUSTRY CO., LTD., priority 2011, dated 2015)
